Data as given in PubChem BioAssay (NCI).
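How tested: cells in 96-well plates exposed to compound for 48 hours at five concentrations. TGI: concentration producing complete growth inhibition.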

What was measured:
Experiment in all cases: NCI tumour cell line growth inhibition, 48 h
SN12C renal = system: SN12C renal
SNB-75 CNS = system: SNB-75 CNS
SF-268 CNS = system: SF-268 CNS
HCT-15 colon = system: HCT-15 colon
MDA-MB-231 breast = system: MDA-MB-231 breast
T-47D breast = system: T-47D breast
OVCAR-8 ovarian = system: OVCAR-8 ovarian
HS 578T breast = system: HS 578T breast
NCI-H460 lung = system: NCI-H460 lung
OVCAR-3 ovarian = system: OVCAR-3 ovarian
HT29 colon = system: HT29 colon
ACHN renal = system: ACHN renal
HOP-62 NSCLC = system: HOP-62 NSCLC
SK-MEL-28 melanoma = system: SK-MEL-28 melanoma
NCI-H23 lung = system: NCI-H23 lung
KM12 colon = system: KM12 colon
MDA-MB-435 = system: MDA-MB-435
HCT-116 colon = system: HCT-116 colon
NCI-H522 lung = system: NCI-H522 lung
LOX IMVI melanoma = system: LOX IMVI melanoma
MCF7 breast = system: MCF7 breast
CCRF-CEM leukemia = system: CCRF-CEM leukemia
TK-10 renal = system: TK-10 renal
SK-MEL-2 melanoma = system: SK-MEL-2 melanoma
OVCAR-4 ovarian = system: OVCAR-4 ovarian
A498 renal = system: A498 renal
786-0 renal = system: 786-0 renal
HOP-92 NSCLC = system: HOP-92 NSCLC
PC-3 prostate = system: PC-3 prostate
UACC-257 melanoma = system: UACC-257 melanoma
UO-31 renal = system: UO-31 renal
CAKI-1 renal = system: CAKI-1 renal
RXF 393 renal = system: RXF 393 renal
MALME-3M melanoma = system: MALME-3M melanoma
M14 melanoma = system: M14 melanoma
SR leukemia = system: SR leukemia
EKVX NSCLC = system: EKVX NSCLC
DU-145 prostate = system: DU-145 prostate
NCI/ADR-RES ovarian = system: NCI/ADR-RES ovarian
SF-295 CNS = system: SF-295 CNS
RPMI-8226 leukemia = system: RPMI-8226 leukemia
IGROV1 ovarian = system: IGROV1 ovarian
HL-60(TB) leukemia = system: HL-60(TB) leukemia
NCI-H226 lung = system: NCI-H226 lung
K-562 leukemia = system: K-562 leukemia
MDA-N = system: MDA-N
OVCAR-5 ovarian = system: OVCAR-5 ovarian
U251 CNS = system: U251 CNS
SK-OV-3 ovarian = system: SK-OV-3 ovarian
UACC-62 melanoma = system: UACC-62 melanoma
HCC-2998 colon = system: HCC-2998 colon
MOLT-4 leukemia = system: MOLT-4 leukemia
SNB-19 CNS = system: SNB-19 CNS
SW-620 colon = system: SW-620 colon
COLO 205 colon = system: COLO 205 colon
SF-539 CNS = system: SF-539 CNS
A549 NSCLC = system: A549 NSCLC
SK-MEL-5 melanoma = system: SK-MEL-5 melanoma
BT-549 breast = system: BT-549 breast

Compound `O=P1(Oc2ccccc2)N(CCCl)CCN1c1ccccc1` (configuration not stated) has a TGI (SN12C renal) greater than 100 µM, a TGI (SNB-75 CNS) greater than 100 µM and a TGI (SF-268 CNS) greater than 100 µM. The TGI (HCT-15 colon) was greater than 100 µM, the TGI (MDA-MB-231 breast) was greater than 100 µM and the TGI (T-47D breast) was greater than 100 µM. The TGI (OVCAR-8 ovarian) was greater than 100 µM, the TGI (HS 578T breast) was greater than 100 µM and the TGI (NCI-H460 lung) was greater than 100 µM. The TGI (OVCAR-3 ovarian) was greater than 100 µM, the TGI (HT29 colon) was greater than 100 µM and the TGI (ACHN renal) was greater than 100 µM. For the same compound, the TGI (HOP-62 NSCLC) was greater than 100 µM, the TGI (SK-MEL-28 melanoma) was greater than 100 µM and the TGI (NCI-H23 lung) was greater than 100 µM. It also gave a TGI (KM12 colon) greater than 100 µM, a TGI (MDA-MB-435) greater than 100 µM and a TGI (HCT-116 colon) greater than 100 µM. It also gave a TGI (NCI-H522 lung) greater than 100 µM, a TGI (LOX IMVI melanoma) greater than 100 µM and a TGI (MCF7 breast) greater than 100 µM. For the same compound, the TGI (CCRF-CEM leukemia) was greater than 100 µM, the TGI (TK-10 renal) was greater than 100 µM and the TGI (SK-MEL-2 melanoma) was greater than 100 µM. The TGI (OVCAR-4 ovarian) was greater than 100 µM, the TGI (A498 renal) was greater than 100 µM and the TGI (786-0 renal) was greater than 100 µM. It also gave a TGI (HOP-92 NSCLC) greater than 100 µM, a TGI (PC-3 prostate) greater than 100 µM and a TGI (UACC-257 melanoma) greater than 100 µM. It also gave a TGI (UO-31 renal) greater than 100 µM, a TGI (CAKI-1 renal) greater than 100 µM and a TGI (RXF 393 renal) greater than 100 µM. It also gave a TGI (MALME-3M melanoma) greater than 100 µM, a TGI (M14 melanoma) greater than 100 µM and a TGI (SR leukemia) greater than 100 µM. For the same compound, the TGI (EKVX NSCLC) was greater than 100 µM, the TGI (DU-145 prostate) was greater than 100 µM and the TGI (NCI/ADR-RES ovarian) was greater than 100 µM. The TGI (SF-295 CNS) was greater than 100 µM, the TGI (RPMI-8226 leukemia) was greater than 100 µM and the TGI (IGROV1 ovarian) was greater than 100 µM. For the same compound, the TGI (HL-60(TB) leukemia) was greater than 100 µM, the TGI (NCI-H226 lung) was greater than 100 µM and the TGI (K-562 leukemia) was greater than 100 µM. The TGI (MDA-N) was greater than 100 µM, the TGI (OVCAR-5 ovarian) was greater than 100 µM and the TGI (U251 CNS) was greater than 100 µM. It also gave a TGI (SK-OV-3 ovarian) greater than 100 µM, a TGI (UACC-62 melanoma) greater than 100 µM and a TGI (HCC-2998 colon) greater than 100 µM. For the same compound, the TGI (MOLT-4 leukemia) was greater than 100 µM, the TGI (SNB-19 CNS) was greater than 100 µM and the TGI (SW-620 colon) was greater than 100 µM. It also gave a TGI (COLO 205 colon) greater than 100 µM, a TGI (SF-539 CNS) greater than 100 µM and a TGI (A549 NSCLC) greater than 100 µM. For the same compound, the TGI (SK-MEL-5 melanoma) was greater than 100 µM.
`COc1cc(OC)c2nc(C)c3c(c2c1)NCC3` was tested, and the TGI (SN12C renal) was 18.9 µM, the TGI (SNB-75 CNS) was 26.6 µM and the TGI (SF-268 CNS) was 20 µM. For the same compound, the TGI (BT-549 breast) was 27.5 µM, the TGI (HCT-15 colon) was 25.9 µM and the TGI (MDA-MB-231 breast) was 21.8 µM. The TGI (OVCAR-8 ovarian) was 19 µM, the TGI (HS 578T breast) was 15.1 µM and the TGI (NCI-H460 lung) was 12 µM. The TGI (OVCAR-3 ovarian) was 33.4 µM, the TGI (HT29 colon) was 15.5 µM and the TGI (ACHN renal) was 26.2 µM. For the same compound, the TGI (HOP-62 NSCLC) was 21.6 µM, the TGI (SK-MEL-28 melanoma) was 28.5 µM and the TGI (NCI-H23 lung) was 19.9 µM. For the same compound, the TGI (MDA-MB-435) was 21.6 µM, the TGI (HCT-116 colon) was 12.9 µM and the TGI (NCI-H522 lung) was 19.6 µM. It also gave a TGI (LOX IMVI melanoma) of 15 µM, a TGI (MCF7 breast) of 17.8 µM and a TGI (CCRF-CEM leukemia) of 31.3 µM. The TGI (TK-10 renal) was 35.7 µM, the TGI (SK-MEL-2 melanoma) was 21.4 µM and the TGI (OVCAR-4 ovarian) was 15.6 µM. For the same compound, the TGI (A498 renal) was 27.7 µM, the TGI (786-0 renal) was 17.2 µM and the TGI (HOP-92 NSCLC) was 30.9 µM. It also gave a TGI (PC-3 prostate) of 20 µM, a TGI (UACC-257 melanoma) of 15.9 µM and a TGI (UO-31 renal) of 27.5 µM. It also gave a TGI (RXF 393 renal) of 18.1 µM, a TGI (MALME-3M melanoma) of 24 µM and a TGI (M14 melanoma) of 24.1 µM. For the same compound, the TGI (SR leukemia) was 7.08 µM, the TGI (DU-145 prostate) was 59 µM and the TGI (NCI/ADR-RES ovarian) was 71.2 µM. The TGI (SF-295 CNS) was 28.9 µM, the TGI (IGROV1 ovarian) was 34 µM and the TGI (HL-60(TB) leukemia) was 40.7 µM. For the same compound, the TGI (NCI-H226 lung) was 19 µM, the TGI (K-562 leukemia) was 27.7 µM and the TGI (MDA-N) was 21.1 µM. The TGI (OVCAR-5 ovarian) was 25.6 µM, the TGI (U251 CNS) was 33.4 µM and the TGI (SK-OV-3 ovarian) was 49.6 µM. It also gave a TGI (UACC-62 melanoma) of 22.4 µM, a TGI (HCC-2998 colon) of 20.3 µM and a TGI (SNB-19 CNS) of 40.7 µM. The TGI (SW-620 colon) was 19.1 µM, the TGI (COLO 205 colon) was 17.1 µM and the TGI (SF-539 CNS) was 16.4 µM. For the same compound, the TGI (A549 NSCLC) was 34.1 µM and the TGI (SK-MEL-5 melanoma) was 21.6 µM.
In the case of `O=c1ccn(C2OC(CO)C(O)C2[Se]c2ccccc2)c(=O)[nH]1` (configuration not stated), the TGI (SN12C renal) is reported as greater than 100 µM, the TGI (SNB-75 CNS) is reported as greater than 100 µM and the TGI (SF-268 CNS) is reported as greater than 100 µM. The TGI (BT-549 breast) was greater than 100 µM, the TGI (HCT-15 colon) was greater than 100 µM and the TGI (MDA-MB-231 breast) was greater than 100 µM. For the same compound, the TGI (OVCAR-8 ovarian) was greater than 100 µM, the TGI (HS 578T breast) was greater than 100 µM and the TGI (NCI-H460 lung) was greater than 100 µM. For the same compound, the TGI (OVCAR-3 ovarian) was greater than 100 µM, the TGI (HT29 colon) was greater than 100 µM and the TGI (ACHN renal) was greater than 100 µM. It also gave a TGI (HOP-62 NSCLC) greater than 100 µM, a TGI (SK-MEL-28 melanoma) greater than 100 µM and a TGI (NCI-H23 lung) greater than 100 µM. It also gave a TGI (KM12 colon) greater than 100 µM, a TGI (MDA-MB-435) greater than 100 µM and a TGI (HCT-116 colon) greater than 100 µM. The TGI (NCI-H522 lung) was greater than 100 µM, the TGI (LOX IMVI melanoma) was greater than 100 µM and the TGI (MCF7 breast) was greater than 100 µM. For the same compound, the TGI (CCRF-CEM leukemia) was greater than 100 µM, the TGI (TK-10 renal) was 0.685 µM and the TGI (SK-MEL-2 melanoma) was greater than 100 µM. The TGI (OVCAR-4 ovarian) was greater than 100 µM, the TGI (A498 renal) was greater than 100 µM and the TGI (786-0 renal) was greater than 100 µM. For the same compound, the TGI (HOP-92 NSCLC) was greater than 100 µM, the TGI (PC-3 prostate) was greater than 100 µM and the TGI (UACC-257 melanoma) was 14.2 µM. The TGI (UO-31 renal) was greater than 100 µM, the TGI (CAKI-1 renal) was greater than 100 µM and the TGI (MALME-3M melanoma) was greater than 100 µM. It also gave a TGI (M14 melanoma) greater than 100 µM, a TGI (SR leukemia) greater than 100 µM and a TGI (EKVX NSCLC) greater than 100 µM. For the same compound, the TGI (DU-145 prostate) was greater than 100 µM, the TGI (NCI/ADR-RES ovarian) was greater than 100 µM and the TGI (SF-295 CNS) was greater than 100 µM. For the same compound, the TGI (IGROV1 ovarian) was greater than 100 µM, the TGI (HL-60(TB) leukemia) was greater than 100 µM and the TGI (NCI-H226 lung) was greater than 100 µM. The TGI (K-562 leukemia) was greater than 100 µM, the TGI (MDA-N) was greater than 100 µM and the TGI (OVCAR-5 ovarian) was greater than 100 µM. It also gave a TGI (U251 CNS) greater than 100 µM, a TGI (SK-OV-3 ovarian) greater than 100 µM and a TGI (UACC-62 melanoma) of 7.31 µM. It also gave a TGI (HCC-2998 colon) greater than 100 µM, a TGI (MOLT-4 leukemia) greater than 100 µM and a TGI (SNB-19 CNS) greater than 100 µM. It also gave a TGI (SW-620 colon) greater than 100 µM, a TGI (COLO 205 colon) greater than 100 µM and a TGI (SF-539 CNS) greater than 100 µM. It also gave a TGI (A549 NSCLC) greater than 100 µM and a TGI (SK-MEL-5 melanoma) greater than 100 µM.
